Reference: ChEMBL document CHEMBL1157685, “Biotransformation of isoimperatorin and imperatorin by Glomerella cingulata and beta-secretase inhibitory activity” (Bioorg Med Chem, 2010)
Active and inactive are the calls of the source. The rule behind the calls is not given here.

Legend:
Beta-secretase 1 [1] = biological target: T1, Beta-secretase 1 (Homo sapiens, UniProt P56817); experiment: Inhibition of human recombinant BACE1 after 60 mins by fluorescence assay
Beta-secretase 1 [2] = biological target: T1, Beta-secretase 1; experiment: Inhibition of human recombinant BACE1 at 100 to 500 uM after 60 mins by fluorescence assay
Beta-secretase 1 [3] = biological target: T1, Beta-secretase 1
Description: Competitive inhibition of human recombinant BACE1 by Lineweaver-Burke plot analysis

T1 sequence (P56817 whole entry): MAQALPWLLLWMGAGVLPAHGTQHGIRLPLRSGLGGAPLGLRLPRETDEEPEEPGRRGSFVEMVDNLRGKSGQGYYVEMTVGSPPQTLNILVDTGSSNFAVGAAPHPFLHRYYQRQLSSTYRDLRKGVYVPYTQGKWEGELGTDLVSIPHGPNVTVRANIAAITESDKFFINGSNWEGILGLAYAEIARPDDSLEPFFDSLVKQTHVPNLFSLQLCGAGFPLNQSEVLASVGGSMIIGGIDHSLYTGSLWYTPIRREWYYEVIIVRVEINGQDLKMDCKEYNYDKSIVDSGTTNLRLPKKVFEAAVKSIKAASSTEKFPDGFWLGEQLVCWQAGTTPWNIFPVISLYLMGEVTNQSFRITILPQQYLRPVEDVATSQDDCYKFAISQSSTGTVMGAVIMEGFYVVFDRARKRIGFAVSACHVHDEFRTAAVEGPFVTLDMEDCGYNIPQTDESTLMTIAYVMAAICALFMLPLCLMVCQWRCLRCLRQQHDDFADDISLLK

| SMILES | IC50 (Beta-secretase 1 [1]) | inhibition (Beta-secretase 1 [1]) | inhibition (Beta-secretase 1 [2]) | Kic (Beta-secretase 1 [3]) |
| --- | --- | --- | --- | --- |
| COc1cc2occc2c(OCC=C(C)C)c1CCC(=O)O | 203 µM | Dose-dependent effect | – | – |
| CC(C)=CCOc1c2occc2cc2ccc(=O)oc12 [PENTOSALEN] | 91.8 µM | Dose-dependent effect | – | – |
| COC(=O)CCc1c(OC)cc2occc2c1OCC=C(C)C | 16.2 µM | Dose-dependent effect | – | – |
| CC(C)=CCOc1c(CCC(=O)O)c(O)cc2occc12 | 186 µM | Dose-dependent effect | – | – |
| CC(C)=CCOc1c2ccoc2cc2oc(=O)ccc12 [ISOIMPERATORIN] | 244 µM | Dose-dependent effect | – | – |
| O=c1ccc2cc3ccoc3c(O)c2o1 | – | Dose-dependent effect | inactive | – |
| COC(=O)CCc1c(O)cc2occc2c1OCC=C(C)C | 30.5 µM | Dose-dependent effect | – | 11.3 µM |
